Measured values taken from patent US6902740B2, “Pyrrolidonoethyl (meth)acrylate containing pressure sensitive adhesive compositions” (3M Innovative Properties Company, priority 2001, dated 2005).

Columns and labels:
[1] = Accelerated drug solubility method (seeded crystal growth) in pressure sensitive adhesive; type: physicochemical
Procedure: The solubility of several drugs in IOA/PyEA 60/40 pressure sensitive adhesive copolymer was determined using an accelerated method which is described in detail below. Drug solubility in an IOA pressure sensitive adhesive homopolymer was used for comparison purposes.
In the accelerated drug solubility method, drug and pressure sensitive adhesive mixtures are made up over a wide range of drug concentrations and then these mixtures are seeded on their surface with pure drug crystal. If the crystals grow over time (typically one week) then the mixture is above the saturation concentration.
Separate stock solutions containing pressure sensitive adhesive in ethyl acetate and drug in a suitable solvent such as ethyl acetate or acetonitrile are prepared. The stock solutions are used to prepare 3 gram batches of drug and pressure sensitive adhesive solution. The amount of each stock solution needed is determined using the following equations, [formula] [formula] where: • C is the desired concentration of drug in pressure sensitive adhesive after solvent removal; • CDS is the concentration of drug in the drug stock solution; • CPS is the concentration of pressure sensitive adhesive in the polymer stock solution; • WDS is the weight in grams of drug stock solution; and • WPS is the weight in grams of pressure sensitive adhesive stock solution.
The calculated amounts of drug stock solution and pressure sensitive adhesive stock solution are combined in a glass vial. The vial is capped then shaken to provide a homogeneous solution.
Under a nitrogen atmosphere (e.g., in a glove box) individual drops of the drug and pressure sensitive adhesive solution are placed on a microscope slide and allowed to dry. Additional drops of solution are applied to each original spot until the spot is covered. The second application is allowed to dry. Applications are continued until a 2-3 mil (51-76 μm) layer has been built up. After the final application the slide is allowed to sit in the nitrogen atmosphere for at least 10 minutes.
The slide is removed from the nitrogen atmosphere and seeded with a very tiny amount of dry crystalline drug. A photomicrograph is taken to document the initial appearance of the crystalline “seeds”. Periodically (e.g., daily or weekly) additional photomicrographs are taken and compared with earlier photomicrographs to determine if seed crystal growth or seed crystal absorption is occurring.
The results are usually reported as a range. The low value indicates the highest concentration sample where no crystal growth is observed. The high value indicates the lowest concentration where crystal growth is observed. In some instances additional work may be performed to narrow the range to a single value.

[2] = Lerisetron solubility in PSA by absorption from receptor solution; type: physicochemical
Procedure: The solubility of the drug lerisetron in two PSAs was determined by measurement of absorption of the drug into the pressure sensitive adhesive in a heterogeneous system. Lerisetron was dissolved in a receptor solution of HBSS buffer/ethanol (85:15 w:w) to give an initial concentration of 7.94 mg/10 mL. The 100% saturation concentration of lerisetron in the receptor solution is 9.93 mg/10 mL. A defined weight of pressure sensitive adhesive was added to 10 mL of receptor solution and the receptor solution was stirred for 4 hours. After the 4 hours of stirring, the concentration of lerisetron in the receptor solution was measured using standard HPLC techniques. The difference in the initial amount of lerisetron and the final amount of lerisetron in the solution is assumed to have been absorbed by the pressure sensitive adhesive. A partition coefficient between the receptor solution and pressure sensitive adhesive can be calculated. The solubility of lerisetron in the pressure sensitive adhesive can subsequently be determined based on the partition coefficient and the previously determined solubility of lerisetron in the receptor solution.

[3] = in IOA homopolymer (comparison)

Row | SMILES | Drug Solubility in Pressure Sensitive Adhesive Copolymer [1, 3] | Drug Solubility in Pressure Sensitive Adhesive Copolymer ([1]; in IOA/PyEA 60/40) | Lerisetron solubility in pressure sensitive adhesive ([2]; in Isooctyl Acrylate/Pyrrolidonoethyl Acrylate/Polymethyl Methacrylate Macromonomer (59/39/2)) [%] | Lerisetron solubility in pressure sensitive adhesive ([2]; in Isooctyl Acrylate/Pyrrolidonoethyl Acrylate/Polymethyl Methacrylate Macromonomer (73/25/2)) [%] | Lerisetron solubility in pressure sensitive adhesive ([2]; in control Isooctyl Acrylate/N-vinyl pyrrolidone/Polymethyl Methacrylate Macromonomer (77/20/3))
1 | CN1CCC(=C2c3ccccc3C=Cc3ccccc32)CC1 [Cyproheptadine] | 5-6 g drug/100 g pressure sensitive adhesive copolymer | 10-15 g drug/100 g pressure sensitive adhesive copolymer |  |  | 
2 | c1ccc(Cn2c(N3CCNCC3)nc3ccccc32)cc1 [Lerisetron, lerisetron] |  |  | 7 | 3 | less than 1%
3 | C[C@]12CC[C@H]3[C@@H](CCC4=CC(=O)CC[C@@]43C)[C@@H]1CC[C@@H]2O [Testosterone] | 0.5 g drug/100 g pressure sensitive adhesive copolymer | 4 g drug/100 g pressure sensitive adhesive copolymer |  |  | 
